Patent publication US8623859B2, “Bradykinin B1 antagonists” (Evotec AG, priority 2008, dated 2014)
Counter-ions that a name gives are not always drawn.

What follows are molecules tested against T1, human B1 (Homo sapiens, UniProt P46663) (assay: Calcium flux assay for Bradykinin B1 antagonist, CHO-K1 cell line expressing human B1). Conditions: CHO-K1 cells expressing human B1, agonist Lys-(Des-Arg)-Bradykinin, read-out: Potency (IC50 value against human B1).
T1 construct: host or cells: CHO-K1
T1 sequence (P46663 1-353): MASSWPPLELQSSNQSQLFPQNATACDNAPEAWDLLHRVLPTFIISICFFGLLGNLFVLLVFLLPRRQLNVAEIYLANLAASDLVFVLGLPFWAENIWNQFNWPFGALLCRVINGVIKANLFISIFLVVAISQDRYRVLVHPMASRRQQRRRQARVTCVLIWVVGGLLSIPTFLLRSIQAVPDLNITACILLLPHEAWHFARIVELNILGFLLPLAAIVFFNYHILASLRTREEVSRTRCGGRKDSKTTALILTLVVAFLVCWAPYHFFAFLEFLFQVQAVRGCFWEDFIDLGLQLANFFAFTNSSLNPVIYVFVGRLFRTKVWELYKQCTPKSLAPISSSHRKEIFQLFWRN
Assay type: cell-based
Summary of the method: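 Inhibition of B1 agonist-evoked intracellular Ca2+ rise was followed by continuous fluorescence at 538 nm, with integrated, background-normalized signals plotted versus log compound concentration. Test compounds (eight 10-fold dilutions, triplicate, 1% DMSO final) were added 30 min at 25° C beforehand to Fluo-4AM-loaded human B1 CHO-K1 cells in pH 7.4 assay buffer.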

IC50	Structure (SMILES)
< 10 nM	COc1cc(C)c(S(=O)(=O)N(Cc2noc(C(=O)N3CCN(CCCN4CCCC4)CC3)n2)C2CC2)c(C)c1 [Ex 317, N-Cyclopropyl-4-methoxy-2,6-dimethyl-N-[(5-{[4-(3-pyrrolidin-1-ylpropyl)piperazin-1-yl]carbonyl}-1,2,4-oxadiazol-3-yl)methyl]benzenesulfonamide]
10 to 100 nM	COc1cc(C)c(S(=O)(=O)N(Cc2noc(C(=O)N3CCN(CCN4CCCC4)CC3)n2)C2CC2)c(C)c1 [Ex 318, N-Cyclopropyl-4-methoxy-2,6-dimethyl-N-[(5-{[4-(2-pyrrolidin-1-ylethyl)piperazin-1-yl]carbonyl}-1,2,4-oxadiazol-3-yl)methyl]benzenesulfonamide]
100 to 1000 nM	COc1cc(C)c(S(=O)(=O)N(C)Cc2noc(C(=O)N3CCN(CCCCN(C)C)CC3)n2)c(C)c1 [Ex 319, N-{[5-({4-[4-(Dimethylamino)butyl]piperazin-1-yl}carbonyl)-1,2,4-oxadiazol-3-yl]methyl}-4-methoxy-N,2,6-trimethylbenzenesulfonamide trifluoroacetate]
100 to 1000 nM	COc1cc(C)c(S(=O)(=O)N(Cc2noc(C(=O)N3CCN(CCCCN(C)C)CC3)n2)C2CC2)c(C)c1 [Ex 320, N-Cyclopropyl-N-{[5-({4-[4-(dimethylamino)butyl]piperazin-1-yl}carbonyl)-1,2,4-oxadiazol-3-yl]methyl}-4-methoxy-2,6-dimethylbenzenesulfonamide trifluoroacetate]
100 to 1000 nM	COc1cc(C)c(S(=O)(=O)N(C)Cc2nc(C(=O)N3CCN(CC4CCN(C)CC4)CC3)no2)c(C)c1 [Ex 321, 4-Methoxy-N,2,6-trimethyl-N-{[3-({4-[(1-methylpiperidin-4-yl)methyl]piperazin-1-yl}carbonyl)-1,2,4-oxadiazol-5-yl]methyl}benzenesulfonamide]
100 to 1000 nM	COc1cc(C)c(S(=O)(=O)N(C)Cc2nc(C(=O)N3CCN(CCCCN(C)C)CC3)no2)c(C)c1 [Ex 322, N-{[3-({4-[4-(Dimethylamino)butyl]piperazin-1-yl}carbonyl)-1,2,4-oxadiazol-5-yl]methyl}-4-methoxy-N,2,6-trimethylbenzenesulfonamide trifluoroacetate]
100 to 1000 nM	COc1cc(C)c(S(=O)(=O)N(C)Cc2nc(C(=O)N3CCN(Cc4cccnc4)CC3)no2)c(C)c1 [Ex 323, 4-Methoxy-N,2,6-trimethyl-N-[(3-{[4-(pyridin-3-ylmethyl)piperazin-1-yl]carbonyl}-1,2,4-oxadiazol-5-yl)methyl]benzenesulfonamide]
10 to 100 nM	COc1cc(C)c(S(=O)(=O)N(C)Cc2nc(C(=O)N(C)Cc3cccc(CN4CCCC4)c3)no2)c(C)c1 [Ex 324, 5-({[(4-Methoxy-2,6-dimethylphenyl)sulfonyl](methyl)amino}methyl)-N-methyl-N-[3-(pyrrolidin-1-ylmethyl)benzyl]-1,2,4-oxadiazole-3-carboxamide trifluoroacetate]
10 to 100 nM	COc1cc(C)c(S(=O)(=O)N(C)Cc2nc(C(=O)N3CCN(CCCN4CCCC4)CC3)no2)c(C)c1 [Ex 325, 4-Methoxy-N,2,6-trimethyl-N-[(3-{[4-(3-pyrrolidin-1-ylpropyl)piperazin-1-yl]carbonyl}-1,2,4-oxadiazol-5-yl)methyl]benzenesulfonamide]
100 to 1000 nM	COc1cc(C)c(S(=O)(=O)N(C)Cc2nnc(C(=O)N3CCN(CCN4CCCC4)CC3)s2)c(C)c1 [Ex 326, 4-Methoxy-N,2,6-trimethyl-N-[(5-{[4-(2-pyrrolidin-1-ylethyl)piperazin-1-yl]carbonyl}-1,3,4-thiadiazol-2-yl)methyl]benzenesulfonamide]
100 to 1000 nM	COc1cc(C)c(S(=O)(=O)N(C)Cc2nnc(C(=O)N3CCN(CCCN4CCCC4)CC3)s2)c(C)c1 [Ex 327, 4-Methoxy-N,2,6-trimethyl-N-[(5-{[4-(3-pyrrolidin-1-ylpropyl)piperazin-1-yl]carbonyl}-1,3,4-thiadiazol-2-yl)methyl]benzenesulfonamide]
< 10 nM	COc1cc(C)c(S(=O)(=O)N(C)Cc2nnc(C(=O)N(C)CCc3ccc(C4=NCCN4)cc3)s2)c(C)c1 [Ex 328, N-{2-[4-(4,5-Dihydro-1H-imidazol-2-yl)phenyl]ethyl}-5-({[(4-methoxy-2,6-dimethylphenyl)sulfonyl](methyl)amino}methyl)-N-methyl-1,3,4-thiadiazole-2-carboxamide]
100 to 1000 nM	COc1cc(C)c(S(=O)(=O)N(C)Cc2nnc(C(=O)N(C)Cc3ccc(CN4CCCC4)cc3)s2)c(C)c1 [Ex 329, 5-({[(4-Methoxy-2,6-dimethylphenyl)sulfonyl](methyl)amino}methyl)-N-methyl-N-[4-(pyrrolidin-1-ylmethyl)benzyl]-1,3,4-thiadiazole-2-carboxamide]
< 10 nM	COc1cc(C)c(S(=O)(=O)N(C)Cc2nnc(C(=O)NCCc3ccc(C4=NCCN4)cc3)s2)c(C)c1 [Ex 330, N-{2-[4-(4,5-Dihydro-1H-imidazol-2-yl)phenyl]ethyl}-5-({[(4-methoxy-2,6-dimethylphenyl)sulfonyl](methyl)amino}methyl)-1,3,4-thiadiazole-2-carboxamide trifluoroacetamide]
10 to 100 nM	COc1cc(C)c(S(=O)(=O)N(C)Cc2nnc(C(=O)N(C)Cc3cccc(CN4CCCC4)c3)s2)c(C)c1 [Ex 331, 5-({[(4-Methoxy-2,6-dimethylphenyl)sulfonyl](methyl)amino}methyl)-N-methyl-N-[3-(pyrrolidin-1-ylmethyl)benzyl]-1,3,4-thiadiazole-2-carboxamide trifluoroacetate]
100 to 1000 nM	COc1cc(C)c(S(=O)(=O)N(C)Cc2nnc(C(=O)N3CCN(C4CCN(C)CC4)CC3)s2)c(C)c1 [Ex 332, 4-Methoxy-N,2,6-trimethyl-N-[(5-{[4-(1-methylpiperidin-4-yl)piperazin-1-yl]carbonyl}-1,3,4-thiadiazol-2-yl)methyl]benzenesulfonamide trifluoroacetamide]
100 to 1000 nM	COc1cc(C)c(S(=O)(=O)N(C)Cc2nnc(C(=O)N3CCN(CC4CCN(C)CC4)CC3)s2)c(C)c1 [Ex 333, 4-Methoxy-N,2,6-trimethyl-N-{[5-({4-[(1-methylpiperidin-4-yl)methyl]piperazin-1-yl}carbonyl)-1,3,4-thiadiazol-2-yl]methyl}benzenesulfonamide]
< 10 nM	COc1cc(C)c(S(=O)(=O)N(Cc2nnc(C(=O)N3CCN(C4CCN(C)CC4)CC3)s2)C2CC2)c(C)c1 [Ex 334, N-Cyclopropyl-4-methoxy-2,6-dimethyl-N-[(5-{[4-(1-methylpiperidin-4-yl)piperazin-1-yl]carbonyl}-1,3,4-thiadiazol-2-yl)methyl]benzenesulfonamide]
< 10 nM	COc1cc(C)c(S(=O)(=O)N(Cc2nnc(C(=O)N3CCN(CC4CCN(C)CC4)CC3)s2)C2CC2)c(C)c1 [Ex 335, N-Cyclopropyl-4-methoxy-2,6-dimethyl-N-{[5-({4-[(1-methylpiperidin-4-yl)methyl]piperazin-1-yl}carbonyl)-1,3,4-thiadiazol-2-yl]methyl}benzenesulfonamide]
10 to 100 nM	COc1cc(C)c(S(=O)(=O)N(Cc2nnc(C(=O)N3CCN(CCCN4CCCC4)CC3)s2)C2CC2)c(C)c1 [Ex 336, N-Cyclopropyl-4-methoxy-2,6-dimethyl-N-[(5-{[4-(3-pyrrolidin-1-ylpropyl)piperazin-1-yl]carbonyl}-1,3,4-thiadiazol-2-yl)methyl]benzenesulfonamide]
< 10 nM	COc1cc(C)c(S(=O)(=O)N(Cc2nnc(C(=O)N3CCC(CCN4CCCC4)CC3)s2)C2CC2)c(C)c1 [Ex 337, N-Cyclopropyl-4-methoxy-2,6-dimethyl-N-[(5-{[4-(2-pyrrolidin-1-ylethyl)piperidin-1-yl]carbonyl}-1,3,4-thiadiazol-2-yl)methyl]benzenesulfonamide]
100 to 1000 nM	COc1cc(C)c(S(=O)(=O)N(C)Cc2nnc(C(=O)N3CCN(CC4CCN(C)CC4)CC3)[nH]2)c(C)c1 [Ex 338, 4-Methoxy-N,2,6-trimethyl-N-{[5-({4-[(1-methylpiperidin-4-yl)methyl]piperazin-1-yl}carbonyl)-4H-1,2,4-triazol-3-yl]methyl}benzenesulfonamide]
